Results published in PMC11054132, “Neuroprotective Effects of Chemical Constituents of Leaves of Euonymus hamiltonianus Wall” (Plants, 2024).
Entries after “also recorded” stand apart in the source; their conditions may differ.

Key:
[1] = Cytotoxicity (MTT assay) in BV-2 microglial cells; format: cell-based; conditions: mouse; BV-2 microglial cells, MTT assay; read-out: IC50 Value (µM) Cytotoxicity
[2] = test system: NO production in LPS-activated BV-2 microglial cells; assay: NO production (Griess reaction) in LPS-stimulated BV-2 microglial cells; format: cell-based, mouse; conditions: for IC50: pretreated 1 h, 100 ng/mL LPS (footnote 24 h; text 12 h), means ± SDs (n = 3); for Inhibitory effect on NO production (in words): LPS-stimulated BV-2 microglial cells
Description: The anti-inflammatory effects of the fourteen compounds (1–14) isolated from E. hamiltonianus were evaluated in activated BV-2 microglial cells by the production of NO and proinflammatory cytokines. […] […] The compounds were continuously assessed to determine whether they suppressed the expression of iNOS and COX-2 in LPS-stimulated BV-2 microglial cells. The cells were stimulated with LPS in the presence of these compounds at various concentrations, and the expression levels of iNOS and COX-2 were determined by Western blotting. […] Thus, compound 3 may be considered a potential anti-inflammatory agent.
For the Aβ-Hela-APPsw model, Hela cells were stably transfected with an APP carrying the Swedish mutation (APPsw) using BioT (Bioland Scientific LLC, Paramount, CA, USA) according to the manufacturer’s instructions, which was provided by Prof. Tae-Wan Kim (Department of Pathology, Columbia University of Medical Center, New York, NY 10032, USA). APPsw-transfected HeLa cells were grown in DMEM supplemented with 10% fetal bovine serum (FBS; Thermo Fisher Scientific, Lafayette, CA, USA), 1% penicillin/streptomycin (Thermo Fisher Scientific, Lafayette, CA, USA), 260 μg/mL Zeocin, and 400 μg/mL G418. The cells were maintained at 37 °C under a humidified atmosphere of 5% CO2. The stock sample solution was dissolved in DMSO and kept at −20 °C and diluted to the final concentration in fresh medium before each experiment. […] The EZ-Cytox kit (DAEILLAB, Cheongwon, Republic of Korea) was applied to detect the cell viability, following the manufacturer’s instructions, and measurements were taken by a microplate reader (BIO-TEK® Dower-Wave; BioTek, Winooski, VT, USA) under absorbance at 450 nm. The results were presented as the percentage of MTT reduction, compared with the control group as 100%. For the LPS-induced microglia model, the BV-2 mouse microglia cell line was provided by Prof. Lee Sung Jung’s research team in the College of Medicine, Seoul National University, and was cultured in DMEM-F12 with 5% FBS and 1% penicillin/streptomycin at 37 °C under a humidified atmosphere containing 5% CO2. And the cell viability assay was performed using the Aβ-Hela-APPsw model.
[…] The media were collected and centrifuged at 13,000 rpm for the removal of dead cells. The supernatants were collected and mixed with an equal volume (50 μL) of Griess reagents (1% sulfanilamide and N-(1-naphthyl) ethylenediamine dihydrochloride in 2.5% H3PO4) for 5 min at room temperature, and the Nitric Oxide concentration was measured at 540 nm using a microplate reader and compared with the sodium nitrite standard curve.

[3] = test system: iNOS; assay: Western blot of LPS-induced iNOS expression in BV-2 microglial cells; format: cell-based, mouse; conditions: LPS-stimulated BV-2 microglial cells, various concentrations (1.0, 2.0, 4.0 µM)
Description: (§1) The anti-inflammatory effects of the fourteen compounds (1–14) isolated from E. hamiltonianus were evaluated in activated BV-2 microglial cells by the production of NO and proinflammatory cytokines. BV-2 microglial cells were stimulated with 0.1 µg/mL LPS for 12 h in the presence of the compounds at various concentrations, and the levels of NO in the culture supernatants were measured using Griess reactions. […] The compounds were continuously assessed to determine whether they suppressed the expression of iNOS and COX-2 in LPS-stimulated BV-2 microglial cells. The cells were stimulated with LPS in the presence of these compounds at various concentrations, and the expression levels of iNOS and COX-2 were determined by Western blotting. […] Thus, compound 3 may be considered a potential anti-inflammatory agent.
The total protein samples (10 μg) were loaded in sodium dodecyl sulfate polyacrylamide gel electrophoresis (SDS–PAGE) gels with 10% acrylamide/bis and transferred to polyvinylidene difluoride membranes (Millipore, Burlington, MA, USA). Then, the membranes were blocked with 5% silky milk dissolved in TBST (Tris Buffered saline Tween) for 1 h under room temperature and incubated overnight at 4 °C with specific primary antibodies (1:1000). After being washed with TBST, the membranes were incubated with secondary HRP-conjugated IgG (1:2000) at room temperature for 1 h and visualized using enhanced chemiluminescence (ECL) reagents (Thermo Fisher Scientific, Lafayette, CA, USA). Densitometry analysis of the bands was performed with the fusion solo system (Vilber, Paris, France). The band densities were determined as the intensities of protein by TotalLab TL120 software v2009 (TotalLab, Newcastle, UK).

[4] = test system: COX-2; assay: Western blot of LPS-induced COX-2 expression in BV-2 microglial cells; format: cell-based, mouse; conditions: LPS-stimulated BV-2 microglial cells, various concentrations (1.0, 2.0, 4.0 µM)
Description: as §1
The total protein samples (10 μg) were loaded in sodium dodecyl sulfate polyacrylamide gel electrophoresis (SDS–PAGE) gels with 10% acrylamide/bis and transferred to polyvinylidene difluoride membranes (Millipore, Burlington, MA, USA). Then, the membranes were blocked with 5% silky milk dissolved in TBST (Tris Buffered saline Tween) for 1 h under room temperature and incubated overnight at 4 °C with specific primary antibodies (1:1000). […] The band densities were determined as the intensities of protein by TotalLab TL120 software v2009 (TotalLab, Newcastle, UK).

[5] = Mus musculus, BV-2, BV-2 microglial cells

IC50 ([2]; BV-2 microglial cells) [µM] | IC50 [2, 5] [µM] | SMILES | IC50 at 12 h [1] [µM] | Inhibitory effect on NO production (in words) [2] | LPS-induced iNOS protein expression (in words) [3] | LPS-induced COX-2 protein expression (in words) [4]
16.3 ± 2.94 | 14.4 | O=c1c(O[C@@H]2O[C@H](CO)[C@H](O)[C@H](O)[C@H]2O)c(-c2ccc(O)c(O)c2)oc2cc(O)cc(O)c12 [Compound 3, quercetin-3-O-β-D-galactopyranoside] | > 100 | effectively downregulated; also recorded: good inhibitory effects | suppressed; also recorded: most potent inhibitory activity; also recorded: effectively downregulated | suppressed; also recorded: most potent inhibitory activity
 | 14.4 ± 8.68 | O=c1c(O[C@@H]2O[C@H](CO)[C@@H](O)[C@H](O)[C@H]2O)c(-c2ccc(O)c(O)c2)oc2cc(O[C@@H]3O[C@H](CO)[C@@H](O)[C@H](O)[C@H]3O)cc(O)c12 [Compound 4, quercetin-3,7-di-O-β-D-glucopyranoside] | > 100 | effectively downregulated; also recorded: good inhibitory effects | suppressed; also recorded: effectively downregulated | suppressed
